Laboratory results as given in ChEMBL document CHEMBL4715817, “Python Cathelicidin CATHPb1 Protects against Multidrug-Resistant Staphylococcal Infections by Antimicrobial-Immunomodulatory Duality” (J Med Chem, 2018).
In brackets after ≈: the same amount, converted by molar mass. Activity calls are given as the source filed them. No cut-off for these calls is given here. Peptide text beside a SMILES is read from it.

Tests used:
[1] = system: Staphylococcus aureus; experiment: In vivo antibacterial activity against vancomycin resistant Staphylococcus aureus infected in kunming mouse assessed as reduction in bacterial load in peritoneal lavage at 10 mg/kg, ip administered 24 hrs before infection; assay type: functional, organism-based
[2] = system: Staphylococcus aureus; experiment: In vivo antibacterial activity against vancomycin resistant Staphylococcus aureus infected in kunming mouse assessed as reduction in bacterial load in spleen at 10 mg/kg, ip administered 24 hrs before infection; assay type: functional, organism-based
[3] = system: Staphylococcus aureus; experiment: Antimicrobial activity against methicillin resistant Staphylococcus aureus IS 08032712, incubated for 16 to 18 hrs by fluorescence microplate reader analysis; assay type: functional; conditions: time 16-18 hrs
[4] = system: Staphylococcus epidermidis; experiment: Antimicrobial activity against Staphylococcus epidermidis IS 08032706 incubated for 16 to 18 hrs by fluorescence microplate reader analysis; assay type: functional; conditions: time 16-18 hrs
[5] = system: Klebsiella pneumoniae; experiment: Antimicrobial activity against Klebsiella pneumoniae IS 08B343 incubated for 16 to 18 hrs by fluorescence microplate reader analysis; assay type: functional; conditions: time 16-18 hrs
[6] = system: Nakaseomyces glabratus; experiment: Antimicrobial activity against Candida glabrata IS 09050201 incubated for 16 to 18 hrs by fluorescence microplate reader analysis; assay type: functional; conditions: time 16-18 hrs
[7] = system: Macrophage; experiment: Immunomodulatory activity in mouse peritoneal macrophage assessed as inhibition of LPS-induced IL-1beta level measured after 6 hrs by qRT-PCR analysis; assay type: functional, tissue-based; conditions: dose 5-20 µg/ml
[8] = system: Macrophage; experiment: Immunomodulatory activity in mouse peritoneal macrophage assessed as inhibition of LPS-induced IL-6 level measured after 6 hrs by qRT-PCR analysis; assay type: functional, tissue-based; conditions: dose 5-20 µg/ml
[9] = system: Macrophage; experiment: Immunomodulatory activity in mouse peritoneal macrophage assessed as inhibition of LPS-induced MCP-1 level measured after 24 hrs by ELISA; assay type: functional, tissue-based; conditions: dose 5-20 µg/ml
[10] = system: Staphylococcus aureus; experiment: In vivo antibacterial activity against vancomycin resistant Staphylococcus aureus infected in kunming mouse assessed as reduction in bacterial load in peritoneum at 10 mg/kg, ip measured 18 hrs after infection; assay type: functional, organism-based
[11] = system: Staphylococcus aureus; experiment: In vivo antibacterial activity against methicillin resistant Staphylococcus aureus IS 08032712 infected in kunming mouse assessed as increase in survival rate at 10 mg/kg, ip administered 4 hrs after infection and measured up to 7 days after infection; assay type: functional, organism-based; conditions: time day <=7
[12] = system: Escherichia coli; experiment: In vivo antibacterial activity against Escherichia coli ATCC 25922 infected in kunming mouse assessed as decrease in bacterial load in peritoneal lavage at 10 mg/kg, ip administered 4 hrs after infection and measured 18 hrs after infection; assay type: functional, organism-based; conditions: time 14.0 hrs
[13] = system: Staphylococcus aureus; experiment: In vivo antibacterial activity against vancomycin resistant Staphylococcus aureus infected in macrophage/monocyte deficient kunming mouse assessed as bacterial load in peritoneal lavage at 10 mg/kg, ip administered 24 hrs before infection; assay type: functional, organism-based
[14] = system: Staphylococcus aureus; experiment: In vivo antibacterial activity against vancomycin resistant Staphylococcus aureus infected in neutropenic kunming mouse model assessed as bacterial load in peritoneal lavage at 10 mg/kg, ip administered 24 hrs before infection; assay type: functional, organism-based
[15] = system: Nakaseomyces glabratus; experiment: Antibiofilm activity against Candida glabrata assessed as biofilm eradication at BIC-5 by XTT and crystal violet staining assay relative to control; assay type: functional
[16] = system: Candida albicans; experiment: Antibiofilm activity against Candida albicans assessed as biofilm eradication at BIC-5 by XTT and crystal violet staining assay relative to control; assay type: functional
[17] = system: Neutrophil; experiment: Immunomodulatory activity in neutrophils (unknown origin) assessed as inhibition of LPS-induced IL-6 level at 5 to 20 ug/ml by ELISA; assay type: functional, cell-based; conditions: dose 5-20 µg/ml
[18] = system: Neutrophil; experiment: Immunomodulatory activity in neutrophils (unknown origin) assessed as inhibition of LPS-induced CXCL1/KC level at 5 to 20 ug/ml by ELISA; assay type: functional, cell-based; conditions: dose 5-20 µg/ml
[19] = system: Mus musculus; experiment: Immunomodulatory activity in Kunming mouse infected with vancomycin-resistant Staphylococcus aureus assessed as decreased in TNF-alpha level in peritoneal lavage at 10 mg/kg, ip administered 24 hrs before infection by ELISA; assay type: functional, organism-based
[20] = system: Mus musculus; experiment: Immunomodulatory activity in Kunming mouse infected with vancomycin-resistant Staphylococcus aureus assessed as increased in MCP-1 level in peritoneal lavage at 10 mg/kg, ip administered 24 hrs before infection by ELISA; assay type: functional, organism-based
[21] = system: Mus musculus; experiment: Immunomodulatory activity in Kunming mouse infected with vancomycin-resistant Staphylococcus aureus assessed as decreased in IL-1beta level in peritoneal lavage at 10 mg/kg, ip administered 4 hrs after infection by ELISA; assay type: functional, organism-based
[22] = Toxicity in Kunming mouse assessed as effect on MCP-1 levels at 10 mg/kg, ip measured after 5 hrs by ELISA; assay type: organism-based; conditions: in vivo
[23] = Toxicity in Kunming mouse assessed as effect on TNF-alpha levels at 10 mg/kg, ip measured after 5 hrs by ELISA; assay type: organism-based; conditions: in vivo
[24] = Toxicity in Kunming mouse assessed as effect on IL-6 levels at 10 mg/kg, ip measured after 5 hrs by ELISA; assay type: organism-based; conditions: in vivo
[25] = Cytotoxicity against mouse peritoneal macrophage assessed as cell death at 100 ug/ml by MTT assay; assay type: tissue-based
[26] = system: Mus musculus; experiment: Immunomodulatory activity in mouse assessed as increase […] of MCP-1 in peritoneal cavity at 10 mg/kg, ip measured after 5 to 24 hrs by ELISA; assay type: functional, organism-based; conditions: time 5-24 hrs
[27] = system: Mus musculus; experiment: Immunomodulatory activity in Kunming mouse infected with vancomycin-resistant Staphylococcus aureus assessed as effect number of inflammatory macrophages in peritoneal cavity at 10 mg/kg, ip measured upto 24 hrs by flow cytometry; assay type: functional, organism-based; conditions: time hrs <=24
[28] = system: Staphylococcus aureus; experiment: Antibacterial activity against vancomycin-resistant Staphylococcus aureus assessed as neutrophil-induced bacterial cell killing neutrophils pretreated with compound measured after 15 to 60 mins; assay type: functional, organism-based; conditions: dose 10-40 µg/ml, time 15-60 min
[29] = Induction of neutrophil extracellular trap formation in neutrophil (unknown origin) at 20 ug/ml measured after 3 hrs by fluorescence analysis; assay type: functional; conditions: dose 20 µg/ml
[30] = target: Mitogen-activated protein kinase 1 and 3 (ERK2 and ERK1) (Mus musculus) (UniProt P63085+Q63844); experiment: Inhibition of LPS-induced phosphorylation of Erk1/2 in mouse peritoneal macrophage pretreated for 1 hr followed by LPS stimulation measured after 30 mins by Western blot analysis; assay type: tissue-based; conditions: dose 5-20 µg/ml, time 1.5 hrs
Chain of Mitogen-activated protein kinase 1 and 3 (ERK2 and ERK1) (Mus musculus) (P63085 whole entry, looked up): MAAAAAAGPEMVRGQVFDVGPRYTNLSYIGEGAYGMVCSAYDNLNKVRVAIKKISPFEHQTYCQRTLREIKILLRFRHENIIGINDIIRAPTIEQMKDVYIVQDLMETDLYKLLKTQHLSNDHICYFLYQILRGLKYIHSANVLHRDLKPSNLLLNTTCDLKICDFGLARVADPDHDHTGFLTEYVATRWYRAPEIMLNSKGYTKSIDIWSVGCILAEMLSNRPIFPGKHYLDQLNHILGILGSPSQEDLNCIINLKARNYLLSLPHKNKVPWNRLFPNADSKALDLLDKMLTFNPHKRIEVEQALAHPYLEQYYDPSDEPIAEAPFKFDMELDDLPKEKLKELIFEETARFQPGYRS
Chain of Mitogen-activated protein kinase 1 and 3 (ERK2 and ERK1) (Mus musculus) (Q63844 whole entry, looked up): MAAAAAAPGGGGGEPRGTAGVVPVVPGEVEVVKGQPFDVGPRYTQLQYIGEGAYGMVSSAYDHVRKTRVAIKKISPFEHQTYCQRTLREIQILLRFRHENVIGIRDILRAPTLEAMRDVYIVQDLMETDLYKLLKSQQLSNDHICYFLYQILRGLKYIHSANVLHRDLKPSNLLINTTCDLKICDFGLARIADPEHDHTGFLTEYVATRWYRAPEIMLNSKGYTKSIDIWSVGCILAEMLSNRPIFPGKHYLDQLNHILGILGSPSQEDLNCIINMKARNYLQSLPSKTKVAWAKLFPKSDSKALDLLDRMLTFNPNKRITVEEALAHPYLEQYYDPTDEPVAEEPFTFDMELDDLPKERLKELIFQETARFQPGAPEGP

[31] = target: Mitogen-activated protein kinase 8/9 (Homo sapiens) (UniProt P45983+P45984); experiment: Inhibition of LPS-induced phosphorylation of Jnk1/2 in mouse peritoneal macrophage pretreated for 1 hr followed by LPS stimulation measured after 30 mins by Western blot analysis; assay type: tissue-based; conditions: dose 5-20 µg/ml, time 1.5 hrs
Chain of Mitogen-activated protein kinase 8/9 (Homo sapiens) (P45983 whole entry, looked up): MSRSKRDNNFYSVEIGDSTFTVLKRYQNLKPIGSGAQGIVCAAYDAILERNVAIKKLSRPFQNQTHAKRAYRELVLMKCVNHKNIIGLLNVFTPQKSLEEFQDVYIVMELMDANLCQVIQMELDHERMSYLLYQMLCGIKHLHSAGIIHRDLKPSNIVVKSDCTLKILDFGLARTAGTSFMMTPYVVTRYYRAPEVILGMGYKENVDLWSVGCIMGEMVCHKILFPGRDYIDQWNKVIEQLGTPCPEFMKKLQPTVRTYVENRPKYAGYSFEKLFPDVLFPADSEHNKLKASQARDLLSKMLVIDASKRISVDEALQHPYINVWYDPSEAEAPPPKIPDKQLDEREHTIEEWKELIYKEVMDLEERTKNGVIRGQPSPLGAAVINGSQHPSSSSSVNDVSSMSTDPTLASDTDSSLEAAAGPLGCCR
Chain of Mitogen-activated protein kinase 8/9 (Homo sapiens) (P45984 whole entry, looked up): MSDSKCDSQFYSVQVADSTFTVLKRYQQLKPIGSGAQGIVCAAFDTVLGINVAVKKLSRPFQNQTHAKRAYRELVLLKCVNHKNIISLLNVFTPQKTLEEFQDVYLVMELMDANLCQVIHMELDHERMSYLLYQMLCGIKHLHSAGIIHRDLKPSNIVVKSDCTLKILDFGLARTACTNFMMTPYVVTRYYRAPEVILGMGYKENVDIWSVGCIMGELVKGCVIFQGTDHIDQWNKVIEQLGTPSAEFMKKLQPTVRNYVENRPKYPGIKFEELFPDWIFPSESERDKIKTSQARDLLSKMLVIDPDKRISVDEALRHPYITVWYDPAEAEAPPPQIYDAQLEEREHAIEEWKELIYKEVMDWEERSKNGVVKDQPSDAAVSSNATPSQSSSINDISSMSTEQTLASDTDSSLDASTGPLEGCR

[32] = system: Macrophage; experiment: Inhibition of LPS-induced phosphorylation of p38 in mouse peritoneal macrophage at 20 ug/ml pretreated for 1 hr followed by LPS stimulation measured after 30 mins by Western blot analysis relative to control; assay type: tissue-based; conditions: dose 20.0 µg/ml, time 1.5 hrs
[33] = Hemolytic activity in human erythrocytes measured at 100 ug/ml; assay type: ADME, cell-based, Erythrocyte; conditions: at 100 µg/mL, read-out: Activity
[34] = system: LAD2; experiment: Cytotoxicity against human LAD2 cells assessed as mast cell degranulation at 100 ug/ml relative to control; assay type: cell-based; conditions: at 100 µg/mL
[35] = system: Staphylococcus aureus; experiment: Antibacterial activity against vancomycin-resistant Staphylococcus aureus assessed as bacterial growth inhibition in aqueous solution incubated upto 96 hrs; assay type: functional; conditions: time hrs <=96
[36] = system: Staphylococcus aureus; experiment: Antibacterial activity against vancomycin-resistant Staphylococcus aureus assessed as bacterial growth inhibition in presence of 100 mmol NaCl; assay type: functional

CC[C@H](C)[C@H](NC(=O)[C@@H]1CCCN1C(=O)[C@@H](NC(=O)[C@@H](NC(=O)CNC(=O)CNC(=O)[C@@H](NC(=O)[C@H](Cc1ccccc1)NC(=O)[C@@H](NC(=O)[C@H](CCCCN)NC(=O)[C@@H](NC(=O)[C@H](CCCCN)NC(=O)[C@H](CCCCN)NC(=O)[C@H](Cc1ccccc1)NC(=O)[C@@H](NC(=O)[C@H](CCCCN)NC(=O)[C@H](CCCNC(=N)N)NC(=O)[C@H](Cc1ccccc1)NC(=O)CNC(=O)[C@H](CCCCN)NC(=O)[C@H](CCCCN)NC(=O)[C@@H](NC(=O)[C@H](CCCCN)NC(=O)[C@H](CCCNC(=N)N)NC(=O)[C@H](Cc1ccccc1)NC(=O)[C@H](Cc1ccccc1)NC(=O)[C@H](CCCCN)NC(=O)[C@H](CCCCN)NC(=O)[C@H](Cc1ccccc1)NC(=O)[C@H](CCCNC(=N)N)NC(=O)[C@@H](N)CCCCN)[C@@H](C)CC)[C@@H](C)CC)[C@@H](C)O)[C@@H](C)CC)[C@@H](C)CC)[C@@H](C)O)[C@@H](C)CC)C(=O)O (H-KRFKKFFRKIKKGFRKIFKKTKIFIGGTIPI-OH)
Activity [1]: Active | Activity [2]: Active | MIC [3]: 1.17 µg/mL (≈ 0.308 µM) | MIC [4]: 1.17 µg/mL (≈ 0.308 µM) | MIC [5]: 1.17 µg/mL (≈ 0.308 µM) | MIC [6]: 1.17 µg/mL (≈ 0.308 µM) | inhibition [7]: Dose-dependent effect | inhibition [8]: Dose-dependent effect | inhibition [9]: Dose-dependent effect | Activity [10]: Active | Activity [11]: Active | Activity [12]: Active | Activity [13]: inactive | Activity [14]: inactive | Activity [15]: 37.47% | Activity [16]: 38.69% | inhibition [17]: Active | inhibition [18]: inactive | Activity [19]: Active | Activity [20]: Active | Activity [21]: Active | Activity [22]: Non-Toxic | Activity [23]: Non-Toxic | Activity [24]: Non-Toxic | Activity [25]: 6.46% | Activity [26]: Active | Activity [27]: inactive | Activity [28]: Dose-dependent effect | Activity [29]: 32.53% | inhibition [30]: Dose-dependent effect | inhibition [31]: Dose-dependent effect | inhibition [32]: 92% | hemolysis at 100 ug/ml [33]: 6.63% | Activity [34]: 10.97% | MIC [35]: 4.96 µg/mL (≈ 1.3 µM) | MIC [36]: < 10 µg/mL
